From patent US20250221953A1 (The University of Chicago, priority 2022, published 2025)
Structures can show the parent of a compound that is named as a salt.

test system: Jurkat T cells; format: cell-based, human; details: IL-2 production level in treated group compared to control group; 48 hours treatment, then anti-CD3/anti-CD28 12 hours
Text: Two preliminary screens were designed and performed.
To construct “blood chemical compound library for cell-based screening purposes, components such as antibodies that are difficult to distinguish due to a wide variety, and some supplements that only function at a whole organism level including fish oils and herbs were excluded. Physiological ranges of serum levels of individual blood chemicals are available in the human metabolome database (https://hmdb.ca/) and applied in the experimental design. For first screen 1a, Jurkat T cells were treated with blood chemical library for 48 hours and then activated with 2.5 μg/mL anti-CD3 and 0.5 μg/mL anti-CD28 antibodies for another 12 hours, followed by measurement of IL-2 level in medium supernatant using ELISA kit (Biolegend). For first screen 1b, 1×10^5 PD-1^+ Jurkat T cells were co-cultured with 2×10^4 H596 (PD-L1^+) cells in a well of 96-well plate for 60 hours, and then activated with 2.5 μg/mL anti-CD3 and 0.5 μg/mL anti-CD28 antibodies for another 12 hours, followed by measurement of IL-2 level in medium supernatant using ELISA kit. Please also refer to Resources Table and Table 1-2 for more details.

| Compound | Relative changed percentage (%) |
| --- | --- |
| NCC(=O)O [Glycine] | −8.966 |
| NCCc1c[nH]cn1 [HISTAMINE FREE BASE CRYSTALLINE, HISTAMINE FREE BASE] | −3.594 |
| OC[C@H]1O[C@@H](Oc2c[nH]c3ccccc23)[C@H](O)[C@@H](O)[C@@H]1O [INDOXYL beta-D-GLUCOSIDE] | 30.46 |
| O[C@H]1[C@H](O)[C@@H](O)[C@H](O)[C@@H](O)[C@H]1O [Inositol] | 15.38 |
| C[C@H](O)C(=O)[O-].[Na+] [L(+)LACTIC ACID SODIUM] | 5.082 |
| C[N+](C)(C)[C@@H](Cc1c[nH]c(=S)[nH]1)C(=O)[O-] [L-(+)-ERGOTHIONEINE INNER SALT] | −10.39 |
| O=C1O[C@H]([C@@H](O)CO)C(O)=C1O [L-ASCORBIC ACID] | 14.49 |
| N=C(N)NCCC[C@H](N)C(=O)O [L-Arginine] | 10.75 |
| NC(=O)C[C@H](N)C(=O)O [L-Asparagine] | 28.4787 |
| N[C@@H](CC(=O)O)C(=O)O [L-Aspartic Acid] | −9.615 |
| N[C@@H](CC(=O)[O-])C(=O)[O-].[K+].[K+] [L-Aspartic acid potassium salt] | 4.421 |
| NC(=O)NCCC[C@H](N)C(=O)O [L-CITRULLINE] | −3.384 |
| N[C@@H](CS)C(=O)O [L-CYSTEINE BIOULTRA,, L-CYSTEINE] | −22.74 |
| N[C@@H](CS)C(=O)O [L-Cysteine] | 32.82 |
| N[C@@H](CSSC[C@H](N)C(=O)O)C(=O)O [L-Cystine] | −19.73 |
| N[C@@H](CCC(=O)N[C@@H](CS)C(=O)NCC(=O)O)C(=O)O [L-GLUTATHIONE REDUCED] | 48.28 |
| N[C@@H](CCC(=O)O)C(=O)O [L-Glutamic Acid] | 2.2718 |
| NC(=O)CC[C@H](N)C(=O)O [L-Glutamine] | 25.52 |
| Cl.N[C@@H](Cc1c[nH]cn1)C(=O)O [L-Histidine hydrochloride] | 3.531 |
| CC[C@H](C)[C@H](N)C(=O)O [L-Isoleucine] | −8.642 |
| CC(C)C[C@H](N)C(=O)O [L-Leucine] | −7.16 |

| Compound | Relative changed percentage (%) |
| --- | --- |
| Cl.NCCCC[C@H](N)C(=O)O [L-Lysine hydrochloride] | −1.605 |
| CSCC[C@H](N)C(=O)O [L-Methionine] | −11.84 |
| Cl.NCCC[C@H](N)C(=O)O [L-ORNITHINE MONOHYDROCHLORIDE] | 8.054 |
| N[C@@H](Cc1ccccc1)C(=O)O [L-Phenylalanine] | −17.2378 |
| O=C(O)[C@@H]1CCCN1 [L-Proline] | −3.935 |
| N[C@@H](CO)C(=O)O [L-Serine] | −22.11 |
| N[C@@H](Cc1cc(I)c(Oc2cc(I)c(O)c(I)c2)c(I)c1)C(=O)O [L-THYROXINE] | 18.7243 |
| C[C@@H](O)[C@H](N)C(=O)O [L-Threonine] | −6.543 |
| N[C@@H](Cc1c[nH]c2ccccc12)C(=O)O [L-Tryptophan] | 1.358 |
| N[C@@H](Cc1ccc(O)cc1)C(=O)O [L-Tyrosine] | −13.45 |
| CC(C)[C@H](N)C(=O)O [L-Valine] | 5.296 |
| N[C@@H](CCC(=O)N[C@@H](CS)C(=O)NCC(=O)O)C(=O)O [L-glutathione] | 13.46 |
| [S]=[Pb] [LEAD(II) SULFIDE] | −13.63 |
| CC(=O)CC(=O)[O-].[Li+] [LITHIUM ACETOACETATE/Acetoacetic acid, LITHIUM ACETOACETATE] | −21.48 |
| CC1=C[C@H](O)CC(C)(C)[C@H]1/C=C/C(C)=C/C=C/C(C)=C/C=C/C=C(C)/C=C/C=C(C)/C=C/C1=C(C)C[C@@H](O)CC1(C)C [Lutein] | 31.92 |
| CC(C)=CCC/C(C)=C/C=C/C(C)=C/C=C/C(C)=C/C=C/C=C(C)/C=C/C=C(C)/C=C/C=C(\C)CCC=C(C)C [Lycopene] | 30 |
| [Cl-].[Cl-].[Mg+2] [MAGNESIUM CHLORIDE ANHYDROUS] | 31.9 |
| COc1ccc2[nH]cc(CCNC(C)=O)c2c1 [MELATONIN CRYSTALLINE/melatonin, melatonin] | 56.15 |
| [Cl][Hg][Cl] [MERCURY(II) CHLORIDE] | −2.995 |
| O[C@H]1[C@H](O)[C@@H](O)[C@H](O)[C@@H](O)[C@H]1O [MYO-INOSITOL] | 40.7157 |
| N[C@@H](CC(=O)[O-])C(=O)[O-].[Mg+2] [Magnesium Aspartate] | −4.156 |

| Compound | Relative changed percentage (%) |
| --- | --- |
| O=C(O)CC(O)C(=O)O (stereo not shown) [Malic acid] | 38.52 |
| O=S(=O)([O-])[O-].[Mn+2] [Manganese sulfate] | 29.55 |
| CS(C)(=O)=O [Methylsulfonylmethane] | −17.53 |
| O=P([O-])(O)O.[K+] [Monopotassium Phosphate] | 28.67 |
| CCCCCCCCCCCCCC(=O)O [Myristic Acid] | −17.39 |
| CCCC/C=C\CCCCCCCC(=O)O [Myristoleic acid] | −21.38 |
| CC(=O)N[C@H]1C(O)O[C@H](CO)[C@@H](O)[C@@H]1O (stereo partly drawn) [N-acetyl D-glucosamine] | −4.044 |
| NC[C@H](O)c1ccc(O)c(O)c1 [NOREPINEPHRINE] | 40.2469 |
| CCCCCCCC/C=C\CCCCCCCCCCCCCC(=O)O [Nervonic acid] | 37.68 |
| NC(=O)c1cccnc1 [Niacinamide] | 95.23 |
| O=C(O)c1cccnc1 [Nicotinic Acid] | 205.6 |
| COc1nc(N)nc2nc[nH]c12 [O-METHYLGUANINE] | 6.274 |
| O=C(O)C(=O)O [OXALIC ACID SODIUM SALT] | −16.88 |
| CC[C@H](C)[C@@H]1NC(=O)[C@H](Cc2ccc(O)cc2)NC(=O)[C@@H](N)CSSC[C@@H](C(=O)N2CCC[C@H]2C(=O)N[C@@H](CC(C)C)C(=O)NCC(N)=O)NC(=O)[C@H](CC(N)=O)NC(=O)[C@H](CCC(N)=O)NC1=O [OXYTOCIN] | −6.991 |
| CCCCCCCC/C=C\CCCCCCCC(=O)O [Oleic acid] | 77.53 |
| Oc1ccccc1 [PHENOL] | 26.79 |
| CC(C)CCCC(C)CCCC(C)CCCC(C)CC(=O)O (stereo not shown) [PHYTANIC ACID] | −18.61 |
| [Br-].[K+] [POTASSIUM BROMIDE] | 78.36 |
| [Cl-].[K+] [POTASSIUM CHLORIDE/potassium, POTASSIUM CHLORIDE] | 38.97 |
| c1ncc2[nH]cnc2n1 [PURINE] | 63.4263 |
| Cc1ncc(CO)c(CO)c1O [PYRIDOXINE] | 11.1111 |

same assay, conditions: IL-2 production level in treated group compared to control group; 48 hours treatment, then anti-CD3/anti-CD28 12 hours; Hydrochloride

| Compound | Relative changed percentage (%) |
| --- | --- |
| Cl.N[C@H]1C(O)O[C@H](CO)[C@@H](O)[C@@H]1O (stereo partly shown) [Glucosamine Hydrochloride] | −6.979 |
